Measurements reported in patent US12441718B2, “Selective angiotensin II compounds” (VICORE PHARMA AB, priority 2021, dated 2025).
Like-named read-outs stand apart in the source and are kept apart here.

Legend:
[1] = molecular target: T1, CYP3A4 (Homo sapiens, UniProt P08684); test: CYP inhibition of C21 found during development; format: in vitro ADME; conditions: statement in background
[2] = molecular target: T2, CYP2C9 (Homo sapiens, UniProt P11712); test: CYP inhibition of C21 found during development; format: in vitro ADME; conditions: statement in background
T2 sequence (P11712 whole entry): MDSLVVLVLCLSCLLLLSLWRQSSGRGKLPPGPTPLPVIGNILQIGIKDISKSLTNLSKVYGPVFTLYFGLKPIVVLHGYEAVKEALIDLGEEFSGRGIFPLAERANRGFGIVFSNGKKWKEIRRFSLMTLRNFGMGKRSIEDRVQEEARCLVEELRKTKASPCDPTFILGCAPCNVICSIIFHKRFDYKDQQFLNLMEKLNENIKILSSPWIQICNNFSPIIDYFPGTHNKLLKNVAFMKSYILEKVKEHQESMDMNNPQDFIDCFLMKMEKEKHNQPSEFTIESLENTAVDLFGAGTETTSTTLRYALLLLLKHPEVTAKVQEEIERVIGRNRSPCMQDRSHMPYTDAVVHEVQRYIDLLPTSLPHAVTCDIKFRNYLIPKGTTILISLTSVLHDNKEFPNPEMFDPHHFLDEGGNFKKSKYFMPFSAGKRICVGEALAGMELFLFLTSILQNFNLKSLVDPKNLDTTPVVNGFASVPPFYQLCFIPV

[3] = Metabolic hydrolysis of C21 found during development; format: in vitro ADME; conditions: statement in background
[4] = tested on: CYP3A4&5; test: in vitro; conditions: human, human liver microsomes, probe testosterone;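 also: Read-out is the metabolite generated from the probe substrate, quantified as HPLC-MS/MS peak area once incubation ends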
[5] = Metabolic stability in pooled human liver microsomes; format: in vitro ADME; conditions: human, pooled human liver microsomes, pooled human liver microsomes 0.5 mg/mL, 1 μM test compound, 37° C., * rows = mean of two runs
Method in brief: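 Pooled human liver microsomes (0.5 mg/mL in PBS) preincubated ±1 mM NADPH at 37° C; test compound added at 10 min to 1 μM final. Samples at 0, 5, 15 and 60 min quenched in acetonitrile, parent quantified by LC-MS/MS against a standard curve (terfenadine internal standard). Initial metabolic rate calculated with and without NADPH.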

[6] = molecular target: T3, CYP2D6 (Homo sapiens, UniProt P10635); test: CYP inhibition in human liver microsomes (Eurofins ITEMG232); format: in vitro ADME; conditions: probe dextromethorphan, substrate dextromethorphan, read-out: CYP2D6 Inh %
T3 construct: isoform-specific substrates incubated with human liver microsomes; tissue Eurofins ITEMG232 (protocol number); host or cells: human liver microsomes
T3 sequence (P10635 whole entry, canonical isoform): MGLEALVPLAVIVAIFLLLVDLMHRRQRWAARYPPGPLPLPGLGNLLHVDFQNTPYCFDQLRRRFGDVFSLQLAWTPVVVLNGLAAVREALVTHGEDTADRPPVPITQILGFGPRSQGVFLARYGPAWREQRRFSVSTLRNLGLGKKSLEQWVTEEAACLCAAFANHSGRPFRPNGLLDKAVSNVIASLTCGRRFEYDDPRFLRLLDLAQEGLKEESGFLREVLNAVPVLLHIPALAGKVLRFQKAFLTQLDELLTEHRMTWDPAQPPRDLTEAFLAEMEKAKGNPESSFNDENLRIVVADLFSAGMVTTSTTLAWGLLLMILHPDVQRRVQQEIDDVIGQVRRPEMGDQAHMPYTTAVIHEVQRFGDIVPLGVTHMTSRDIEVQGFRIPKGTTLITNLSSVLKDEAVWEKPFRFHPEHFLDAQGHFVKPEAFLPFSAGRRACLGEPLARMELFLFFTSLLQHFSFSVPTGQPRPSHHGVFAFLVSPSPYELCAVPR

[7] = molecular target: T4, CYP2C19 (Homo sapiens, UniProt P33261); test: as above; format: in vitro ADME; conditions: human, probe omeprazole, substrate omeprazole, read-out: CYP2C19 Inh %
T4 construct: isoform-specific substrates incubated with human liver microsomes; tissue Eurofins ITEMG232 (protocol number); host or cells: human liver microsomes
T4 sequence (P33261 whole entry, canonical isoform): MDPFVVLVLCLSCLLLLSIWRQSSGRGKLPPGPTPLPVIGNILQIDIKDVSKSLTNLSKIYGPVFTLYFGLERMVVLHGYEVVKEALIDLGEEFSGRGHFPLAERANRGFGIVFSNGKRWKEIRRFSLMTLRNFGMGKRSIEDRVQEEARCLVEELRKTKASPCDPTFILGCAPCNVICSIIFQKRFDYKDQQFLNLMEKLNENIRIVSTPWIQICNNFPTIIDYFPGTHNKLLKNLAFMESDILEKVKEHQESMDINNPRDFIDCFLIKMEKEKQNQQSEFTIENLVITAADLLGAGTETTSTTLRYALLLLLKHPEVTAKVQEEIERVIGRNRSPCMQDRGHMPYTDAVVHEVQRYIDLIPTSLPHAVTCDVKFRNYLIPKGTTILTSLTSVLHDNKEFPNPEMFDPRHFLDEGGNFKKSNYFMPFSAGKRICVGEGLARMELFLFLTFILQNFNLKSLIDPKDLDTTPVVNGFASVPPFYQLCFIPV

[8] = molecular target: T5, human recombinant AT2 receptor (Homo sapiens, UniProt P50052); test: Binding to AT2 receptor, radiometric scintillation assay (Eurofins ITEM26); conditions: ligand 125I CGP 42112A, * rows = mean of runs; for Ki: seven-point dose-response curve; for IC50: test compounds at 1, 10, 100 and 1000 nM, read-out: AT2 GraFit IC50
T5 construct: purchased Eurofins ITEM26 (protocol number)
T5 sequence (P50052 1-363): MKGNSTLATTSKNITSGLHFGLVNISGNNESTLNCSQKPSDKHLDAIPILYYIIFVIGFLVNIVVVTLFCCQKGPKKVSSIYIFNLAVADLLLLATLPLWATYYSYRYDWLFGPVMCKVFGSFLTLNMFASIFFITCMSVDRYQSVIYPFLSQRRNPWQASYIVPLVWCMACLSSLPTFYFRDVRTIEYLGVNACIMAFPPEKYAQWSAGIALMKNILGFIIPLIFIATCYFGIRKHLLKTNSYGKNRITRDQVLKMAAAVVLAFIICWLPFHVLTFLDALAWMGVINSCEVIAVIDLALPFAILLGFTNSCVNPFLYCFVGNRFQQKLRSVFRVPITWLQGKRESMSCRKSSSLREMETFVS

[9] = molecular target: T6, CYP1A2 (Homo sapiens, UniProt P05177); test: in vitro; format: in vitro ADME; conditions: human, microsomes, human liver microsomes, substrate phenacetin, read-out: CYP1A2 Inh %
T6 construct: isoform-specific substrates incubated with human liver microsomes; tissue Eurofins ITEMG232 (protocol number); host or cells: human liver microsomes
T6 sequence (P05177 whole entry, canonical isoform): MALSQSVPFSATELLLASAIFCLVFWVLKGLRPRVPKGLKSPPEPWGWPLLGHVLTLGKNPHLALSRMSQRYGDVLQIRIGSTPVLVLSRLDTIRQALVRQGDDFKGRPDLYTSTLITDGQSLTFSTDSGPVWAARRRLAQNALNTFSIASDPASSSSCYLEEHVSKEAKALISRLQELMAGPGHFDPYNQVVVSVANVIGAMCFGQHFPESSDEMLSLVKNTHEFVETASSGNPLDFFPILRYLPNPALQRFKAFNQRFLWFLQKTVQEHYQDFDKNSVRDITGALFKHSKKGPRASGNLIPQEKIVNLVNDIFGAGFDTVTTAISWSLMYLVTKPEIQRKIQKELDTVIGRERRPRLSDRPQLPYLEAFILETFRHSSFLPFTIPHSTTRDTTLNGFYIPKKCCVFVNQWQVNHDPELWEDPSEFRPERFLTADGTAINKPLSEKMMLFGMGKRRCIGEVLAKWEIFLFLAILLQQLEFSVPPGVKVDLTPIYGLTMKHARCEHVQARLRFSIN
Description: The following substrates were used; CYP1A phenacetin, CYP2B36 bupropion, CYP2C8 paclitaxel and amodiaquine, CYP2C9 diclofenac, CYP2C19 omeprazole, CYP2D6 dextromethorphan, CYP3A midazolam and testosterone.
At the end of the incubation, the formation of metabolite was monitored by HPLC-MS/MS as the peak area response.

[10] = molecular target: T7, CYP2C8 (Homo sapiens, UniProt P10632); test: CYP inhibition in human liver microsomes (Eurofins ITEMG232); format: in vitro ADME; conditions: human, probe paclitaxel and amodiaquine, substrate paclitaxel and amodiaquine, read-out: CYP2C8 Inh %
T7 construct: isoform-specific substrates incubated with human liver microsomes; tissue Eurofins ITEMG232 (protocol number); host or cells: human liver microsomes
T7 sequence (P10632 1-490): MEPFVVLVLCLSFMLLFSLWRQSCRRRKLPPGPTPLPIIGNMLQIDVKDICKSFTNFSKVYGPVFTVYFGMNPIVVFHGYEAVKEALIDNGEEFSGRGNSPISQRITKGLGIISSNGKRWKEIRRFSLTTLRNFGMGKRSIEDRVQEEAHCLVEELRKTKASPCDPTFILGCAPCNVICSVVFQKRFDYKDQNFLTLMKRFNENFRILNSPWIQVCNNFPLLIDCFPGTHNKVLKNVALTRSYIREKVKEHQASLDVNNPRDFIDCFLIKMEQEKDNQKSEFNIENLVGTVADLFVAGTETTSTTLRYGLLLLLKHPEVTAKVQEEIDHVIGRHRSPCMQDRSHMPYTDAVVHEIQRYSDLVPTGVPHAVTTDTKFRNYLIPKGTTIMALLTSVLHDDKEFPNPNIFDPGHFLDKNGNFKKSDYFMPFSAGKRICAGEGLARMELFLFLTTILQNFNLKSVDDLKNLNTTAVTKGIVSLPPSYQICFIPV

[11] = molecular target: T8, CYP2B6 (Homo sapiens, UniProt P20813); test: as above; format: in vitro ADME; conditions: probe bupropion, substrate bupropion, read-out: CYP2B6 Inh %
T8 construct: isoform-specific substrates incubated with human liver microsomes; tissue Eurofins ITEMG232 (protocol number); host or cells: human liver microsomes
T8 sequence (P20813 1-491): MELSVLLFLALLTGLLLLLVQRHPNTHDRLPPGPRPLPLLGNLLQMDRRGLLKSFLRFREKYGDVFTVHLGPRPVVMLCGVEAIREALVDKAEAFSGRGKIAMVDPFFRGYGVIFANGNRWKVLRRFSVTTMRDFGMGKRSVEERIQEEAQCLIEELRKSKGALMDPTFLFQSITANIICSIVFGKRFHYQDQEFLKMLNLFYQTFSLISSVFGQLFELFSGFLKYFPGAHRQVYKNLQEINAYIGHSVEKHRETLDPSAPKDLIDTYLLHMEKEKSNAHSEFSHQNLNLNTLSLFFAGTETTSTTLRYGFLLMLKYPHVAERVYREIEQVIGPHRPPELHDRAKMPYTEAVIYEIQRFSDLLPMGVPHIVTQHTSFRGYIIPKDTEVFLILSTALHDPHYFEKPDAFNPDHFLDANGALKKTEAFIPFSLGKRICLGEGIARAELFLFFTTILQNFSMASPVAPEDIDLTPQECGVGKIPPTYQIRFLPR

[12] = molecular target: T1, CYP3A4; test: CYP inhibition in human liver microsomes (Eurofins ITEMG232), midazolam substrate; format: in vitro ADME; parameters: isoform-specific substrates incubated with human liver microsomes; tissue Eurofins ITEMG232 (protocol number); host or cells: human liver microsomes; conditions: human, probe midazolam, read-out: CYP3A4 midazolam Inh %
[13] = molecular target: T9, human recombinant AT1 receptor (Homo sapiens, UniProt P30556); test: Binding to AT1 receptor, radiometric scintillation assay (Eurofins ITEM24); conditions: test compounds at 1 and 10 μM, ligand 125I(sar1,Ile8)-AT-II; * rows = mean of runs
T9 construct: purchased Eurofins ITEM24 (protocol number)
T9 sequence (P30556 1-359): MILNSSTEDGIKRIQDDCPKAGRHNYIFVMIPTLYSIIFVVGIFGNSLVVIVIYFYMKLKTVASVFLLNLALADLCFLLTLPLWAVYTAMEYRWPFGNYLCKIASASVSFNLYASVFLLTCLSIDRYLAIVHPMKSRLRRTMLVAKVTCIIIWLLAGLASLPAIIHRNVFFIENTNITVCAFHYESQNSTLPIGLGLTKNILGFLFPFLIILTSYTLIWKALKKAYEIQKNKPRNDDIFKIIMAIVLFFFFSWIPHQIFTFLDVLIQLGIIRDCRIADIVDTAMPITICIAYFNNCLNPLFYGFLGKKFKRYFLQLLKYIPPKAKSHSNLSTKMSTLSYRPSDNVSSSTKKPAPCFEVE

[14] = molecular target: T2, CYP2C9; test: CYP inhibition in human liver microsomes (Eurofins ITEMG232); format: in vitro ADME; parameters: isoform-specific substrates incubated with human liver microsomes; tissue Eurofins ITEMG232 (protocol number); host or cells: human liver microsomes; conditions: human, probe diclofenac, substrate diclofenac, read-out: CYP2C9 Inh %
[15] = without NADPH, read-out: T1/2, no NaDPH
[16] = with 1 mM NADPH, read-out: T1/2, + NaDPH

T1 sequence (P08684 whole entry): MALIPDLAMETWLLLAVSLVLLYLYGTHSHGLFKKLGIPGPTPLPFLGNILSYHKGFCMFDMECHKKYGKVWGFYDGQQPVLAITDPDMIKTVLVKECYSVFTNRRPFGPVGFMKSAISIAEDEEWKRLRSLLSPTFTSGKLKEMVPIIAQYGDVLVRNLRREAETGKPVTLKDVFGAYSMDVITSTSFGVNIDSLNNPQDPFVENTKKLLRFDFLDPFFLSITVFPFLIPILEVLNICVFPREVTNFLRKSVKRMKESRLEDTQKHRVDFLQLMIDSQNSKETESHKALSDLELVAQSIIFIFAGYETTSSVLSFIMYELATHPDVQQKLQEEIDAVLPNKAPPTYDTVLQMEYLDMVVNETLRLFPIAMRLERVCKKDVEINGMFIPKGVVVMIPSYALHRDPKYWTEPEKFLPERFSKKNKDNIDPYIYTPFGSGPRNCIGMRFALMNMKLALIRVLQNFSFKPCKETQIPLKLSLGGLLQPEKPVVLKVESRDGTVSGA

Row | inhibition of CYP 3A4 [1] | inhibition of CYP 2C9 [2] | inhibition at 10 µM [4] | half-life at 1 μM [5, 15] | inhibition at 10 µM [6] | inhibition at 10 µM [7] | Ki [8] | IC50 [8] | inhibition at 10 µM [9] | inhibition at 10 µM [10] | inhibition at 10 µM [11] | inhibition at 10 µM [12] | IC50 [13] | inhibition at 10 µM [14] | half-life at 1 μM [5, 16] | SMILES | metabolic hydrolysis [3]
1 | potent inhibitor | potent inhibitor | 94% | 30 min |  |  |  |  |  |  |  |  |  |  |  | CCCCOC(=O)NS(=O)(=O)c1sc(CC(C)C)cc1-c1ccc(Cn2ccnc2)cc1 [Example C21, N-butyloxycarbonyl-3-(4-imidazol-1-ylmethylphenyl)-5-isobutylthiophene-2-sulfon-amide] | rapidly hydrolysed to an inactive sulfonamide metabolite
2 |  |  | -14.9% | > 60 min | 16.4% | 35.8% | 2.05 nM | 4.11 nM | 48.6% | 91.6% | 30.4% | 7.7% | 5200 nM | 73.1% | > 60 min | CC(C)Cc1ccc(S(=O)(=O)Nc2ncc(F)cn2)c(-c2ccc(Cn3ccnc3C(C)(C)C)c(F)c2)c1 [Example 9, 4′-((2-(tert-Butyl)-1H-imidazol-1-yl)methyl)-3′-fluoro-N-(5-fluoropyrimidin-2-yl)-5-isobutyl-[1,1′-biphenyl]-2-sulfonamide] | 
3 |  |  | 28.1% | > 60 min | 20.1% | 48% | 3.75 nM | 7.5 nM | 10.7% | 40.9% | 12.5% | 47.5% | 22700 nM | 69% | 40 min | Cc1cnc(NS(=O)(=O)c2ccc(CC(C)C)cc2-c2ccc(Cn3ccnc3C(C)(C)C)cc2)nc1 [Example 20, 4′-((2-(tert-Butyl)-1H-imidazol-1-yl)methyl)-5-isobutyl-N-(5-methylpyrimidin-2-yl)-[1,1′-biphenyl]-2-sulfonamide] | 
4 |  |  | 3.7% | > 60 min | 15% | 41% | 1.27 nM | 2.54 nM | 45.9% | 78% | 38.9% | -12.5% | 15000 nM | 41.3% | 54 min | CC(C)Cc1ccc(S(=O)(=O)Nc2ncccn2)c(-c2ccc(Cn3ccnc3C(C)(C)C)c(F)c2)c1 [Example 7, 4′-((2-(tert-Butyl)-1H-imidazol-1-yl)methyl)-3′-fluoro-5-isobutyl-N-(pyrimidin-2-yl)-[1,1′-biphenyl]-2-sulfonamide] | 
